Results reported in patent US20260207670A1, “STABILIZED BLOOD DERIVED COMPOSITION USING ANTIFIBRINOLYTIC AGENTS” (priority 2022, published 2026).

Columns and labels:
SOX9 gene = experiment: RT-PCR of SOX9 gene expression in the rabbit osteoarthritis model; format: in vivo; conditions: p=0.36 (TXA)
From the text: (§1) The measurement of the expression of the genes responsible for the cell differentiation is found to be important in assessing the potential regenerative of the therapy tested. The process of tissue repair involves the overexpression of the genes that are involved in the form of messenger RNA (mRNA) which will be essential for synthesis of proteins necessary for wound healing and differentiation. Therefore, quantification of the mRNA of such a gene will reflect the efficiency and the intensity of tissue repair. Based on this principle, in the rabbit osteoarthritis model of Example 3, RT-PCR was carried out in order to quantify two genes that are correlated to repair and differentiation hyaline cartilage: the COL II gene coding for the synthesis of collagen II; and the SOX9 gene coding for the differentiation mechanisms chondrocyte.

[1] = system: rabbit model of osteoarthritis; experiment: Arthrosis rabbit model: radiological, macroscopic and histological scores; format: in vivo
Experimental: Rabbits showing characteristic signs of osteoarthritis (as described in Guingamp et al., 1997; confirmed with the sacrifice of two rabbits on day 15 after induction of osteoarthritis and histology), were injected with a treatment solution as described below. The rabbits were sacrificed after 75 days and radiological observation, macroscopic observation, histological observation of the cartilage, histological observation of the synovium, histological observation of the menisci were carried out.
The rabbits were treated with either: • 1. PRP alone; or • 2. […] Physiological serum (saline solution, a placebo)
The limbs were examined radiologically by two orthogonal views (anteroposterior and medio-lateral) performed using a SAMSUNG XGO® model GU60 digital radiography system (Samsung® Electronics Co, Ltd; Korè) according to radiological constants following: Voltage: 52 kV; Intensity: 100 mA; and Load: 5 mAs. The radiographs were examined blindly by two observers. The degenerative changes are similar between the two subgroups of group control (physiological serum and TXA alone). […] This is explained by the fact that tranexamic acid prevents the destruction of the fibrin network within the joint space and allows a prolonged biological action.

PRP fibrin clot = experiment: Speed of PRP fibrin clot disintegration (PRP gel disc diameter)
COL II gene = experiment: RT-PCR of COL II gene expression in the rabbit osteoarthritis model; format: in vivo; conditions: p=0.12 (TXA), p=3.9*10-8 (PRP alone), p=2.1*10-6 (PRP+TXA)
From the text: as §1

`NC[C@H]1CC[C@H](C(=O)O)CC1` [TXA, tranexamic acid] was tested, and the “expression of SOX9 gene (RQ) compared to placebo” value (SOX9 gene) was “No significant difference”, the “synovial score (osteoarthritic synoviopathy) compared to placebo” value ([1]; after 75 days, p=0.58 (TXA)) was “no statistically significant differences” and the “meniscal histological score compared to placebo” value ([1]; after 75 days, p=0.6 (TXA), p=0.07 (PRP alone), p=2.2*10-6 (PRP+TXA)) was “no statistically significant differences”. For the same compound, the “radiological score compared with physiological serum” value ([1]; rabbits sacrificed after 75 days, p=0.092 (PRP alone)) was “similar”, the “effect on PRP gel disc breakdown, 20 mg/mL compared with 10 mg/mL” value (PRP fibrin clot; 20 mg/mL tranexamic acid vs 10 mg/mL (Example 1)) was “even more beneficial effect” and the “rate of PRP gel disc breakdown” value (PRP fibrin clot; PRP gel discs with TXA 10 or 20 mg/ml vs pure PRP gel, diameter measured weekly over 21 days, physiological conditions) was “significantly reduced”. The “expression of COLII (RQ) compared to placebo” value (COL II gene) was “No significant difference”.
